For one data set, the system named is Septoria nodorum. Description: Test E: preventive spray on wheat seedlings, Septoria glume blotch, visual disease rating. The data set is classed as in vivo. Particulars: asterisked rating: test suspension other than 200 ppm. As to the method: General protocol for preparing test suspensions for Tests A-I: the test compounds were first dissolved in acetone in an amount equal to 3% of the final volume and then suspended at the desired concentration (in ppm) in acetone and purified water (50/50 mix by volume) containing 250 ppm of the surfactant Trem® 014 (polyhydric alcohol esters). The resulting test suspensions were then used in Tests A-I. Each test was conducted in triplicate, and the results were averaged. Spraying a 200 ppm test suspension to the point of run-off on the test plants was the equivalent of a rate of about 800 g/ha. Unless otherwise indicated, the rating values indicate a 200 ppm test suspension was used. (An asterisk “*” next to the rating value indicates a 40 ppm test suspension was used.) The test suspension was sprayed to the point of run-off on wheat seedlings. The following day the seedlings were inoculated with a spore suspension of Septoria nodorum (the causal agent of Septoria glume blotch) and incubated in a saturated atmosphere at 24° C. for 48 h, and then moved to a growth chamber at 20° C. for 9 days, after which time visual disease ratings were made. Results for Tests A-I are given in Table A. In the Table, a rating of 100 indicates 100% disease control and a rating of 0 indicates no disease control (relative to the controls). A hyphen (-) indicates no test results.

Data set [1] is described as follows: Single oral dose pharmacokinetics in rats, plasma and fat analysed by LC/MS (fat:plasma ratio). The data set is classed as in vivo. The settings on record: single dose via oral gavage, compared to corresponding compounds with a nonhydrogen substituent at the para position of the phenyl ring connected to R^1 and R^2. The procedure:
The pharmacokinetic properties of compounds of Formula 1 can be measured using a wide variety of assay protocols known in the science of pharmacology. In one illustrative method involving a single oral dose, three male and three female rats receive a single dose of a test substance via oral gavage. Approximately 0.25 mL of blood is collected via tail vein immediately prior to dosing, and then at 0.25, 0.5, 1, 2, 4, 8, 12, 24 h and every 24 h thereafter until sacrifice. At sacrifice, fat is also collected to determine the fat:plasma ratio at sacrifice. Blood is collected into tubes that contain ethylenediaminetetracetic acid (EDTA) and centrifuged at 2500×g in order to separate plasma from blood cells. The plasma is then extracted by protein precipitation using, for example, acetonitrile and a protein precipitation plate (e.g., Strata Impact Protein Precipitation Plate, part number CEO-7565 of Phenomenex, Torrance, Calif., U.S.A.) following directions provided for the plate. Alternatively, the plasma is extracted just with acetonitrile, vortexed (i.e. mixed using a vortex mixer), and centrifuged to pellet the proteins. After removal of the proteins, the plasma is analyzed for parent compound and/or metabolites by liquid chromatography-mass spectrometry (LC/MS). The fat is homogenized and extracted by an organic solvent such as acetonitrile. The extract is then analyzed for parent compound and/or metabolites by LC/MS. The plasma pharmacokinetic data is then analyzed using nonlinear modeling software (e.g., WinNonlin™ from Pharsight, Cary, N.C., U.S.A.) to determine half-life of the administered compound in plasma, the time after administration when the maximum plasma concentration is reached (Tmax), the maximum plasma concentration (Cmax) and the area under the plasma concentration curve (AUC). As analysis of fat requires rat sacrifice, fat data is obtained at single time points (i.e. the time of rat sacrifice). However, by using multiple rats sacrificed after different intervals from time of dosing, such parameters as Cmax for fat are determined.

A further data set relates to Septoria tritici. Description: Test F: preventive spray on wheat seedlings, wheat leaf blotch, visual disease rating. It is filed as in vivo. Particulars: Zymoseptoria tritici, 200 ppm test suspension. The procedure: General protocol for preparing test suspensions for Tests A-I: the test compounds were first dissolved in acetone in an amount equal to 3% of the final volume and then suspended at the desired concentration (in ppm) in acetone and purified water (50/50 mix by volume) containing 250 ppm of the surfactant Trem® 014 (polyhydric alcohol esters). The resulting test suspensions were then used in Tests A-I. Each test was conducted in triplicate, and the results were averaged. Spraying a 200 ppm test suspension to the point of run-off on the test plants was the equivalent of a rate of about 800 g/ha. Unless otherwise indicated, the rating values indicate a 200 ppm test suspension was used. (An asterisk “*” next to the rating value indicates a 40 ppm test suspension was used.) The test suspension was sprayed to the point of run-off on wheat seedlings. The following day the seedlings were inoculated with a spore suspension of Septoria tritici (the causal agent of wheat leaf blotch) and incubated in saturated atmosphere at 24° C. for 48 h. and then the seedlings were moved to a growth chamber at 20° C. for 19 additional days, after which time visual disease ratings were made. Results for Tests A-I are given in Table A. In the Table, a rating of 100 indicates 100% disease control and a rating of 0 indicates no disease control (relative to the controls). A hyphen (-) indicates no test results.

Data set [2] deals with Puccinia recondita f. sp. tritici. Kind of data set: Test H: preventive spray on wheat seedlings, wheat leaf rust, visual disease rating. The data set is classed as in vivo. Particulars: 200 ppm test suspension. As to the method: General protocol for preparing test suspensions for Tests A-I: the test compounds were first dissolved in acetone in an amount equal to 3% of the final volume and then suspended at the desired concentration (in ppm) in acetone and purified water (50/50 mix by volume) containing 250 ppm of the surfactant Trem® 014 (polyhydric alcohol esters). The resulting test suspensions were then used in Tests A-I. Each test was conducted in triplicate, and the results were averaged. Spraying a 200 ppm test suspension to the point of run-off on the test plants was the equivalent of a rate of about 800 g/ha. Unless otherwise indicated, the rating values indicate a 200 ppm test suspension was used. (An asterisk “*” next to the rating value indicates a 40 ppm test suspension was used.) The test suspension was sprayed to the point of run-off on wheat seedlings. The following day the seedlings were inoculated with a spore suspension of Puccinia recondita f. sp. tritici (the causal agent of wheat leaf rust) and incubated in a saturated atmosphere at 20° C. for 24 h, and then moved to a growth chamber at 20° C. for 6 days, after which time visual disease ratings were made. Results for Tests A-I are given in Table A. In the Table, a rating of 100 indicates 100% disease control and a rating of 0 indicates no disease control (relative to the controls). A hyphen (-) indicates no test results.

A further data set relates to Botrytis cinerea. Kind of data set: Test A: preventive spray on tomato seedlings, tomato Botrytis, visual disease rating. It is filed as in vivo. The settings on record: 200 ppm test suspension. The procedure: General protocol for preparing test suspensions for Tests A-I: the test compounds were first dissolved in acetone in an amount equal to 3% of the final volume and then suspended at the desired concentration (in ppm) in acetone and purified water (50/50 mix by volume) containing 250 ppm of the surfactant Trem® 014 (polyhydric alcohol esters). The resulting test suspensions were then used in Tests A-I. Each test was conducted in triplicate, and the results were averaged. Spraying a 200 ppm test suspension to the point of run-off on the test plants was the equivalent of a rate of about 800 g/ha. Unless otherwise indicated, the rating values indicate a 200 ppm test suspension was used. (An asterisk “*” next to the rating value indicates a 40 ppm test suspension was used.) The test suspension was sprayed to the point of run-off on tomato seedlings. The following day the seedlings were inoculated with a spore suspension of Botrytis cinerea (the causal agent of tomato Botrytis) and incubated in saturated atmosphere at 20° C. for 48 h, and then moved to a growth chamber at 24° C. for 3 additional days, after which time visual disease ratings were made. Results for Tests A-I are given in Table A. In the Table, a rating of 100 indicates 100% disease control and a rating of 0 indicates no disease control (relative to the controls). A hyphen (-) indicates no test results.

In data set [3] the test system is Blumeria graminis f. sp. tritici. Kind of data set: Test I: preventive spray on wheat seedlings, wheat powdery mildew, visual disease rating. The data set is classed as in vivo. Particulars: 192 h, 200 ppm test suspension. The procedure:
General protocol for preparing test suspensions for Tests A-I: the test compounds were first dissolved in acetone in an amount equal to 3% of the final volume and then suspended at the desired concentration (in ppm) in acetone and purified water (50/50 mix by volume) containing 250 ppm of the surfactant Trem® 014 (polyhydric alcohol esters). The resulting test suspensions were then used in Tests A-I. Each test was conducted in triplicate, and the results were averaged. Spraying a 200 ppm test suspension to the point of run-off on the test plants was the equivalent of a rate of about 800 g/ha. Unless otherwise indicated, the rating values indicate a 200 ppm test suspension was used. (An asterisk “*” next to the rating value indicates a 40 ppm test suspension was used.) The test suspension was sprayed to the point of run-off on wheat seedlings. The following day the seedlings were inoculated with a spore dust of Blumeria graminis f. sp. tritici (also known as Erysiphe graminis f. sp. tritici, the causal agent of wheat powdery mildew) and incubated in a growth chamber at 20° C. for 8 days, after which time visual disease ratings were made. Results for Tests A-I are given in Table A. In the Table, a rating of 100 indicates 100% disease control and a rating of 0 indicates no disease control (relative to the controls). A hyphen (-) indicates no test results.

Consider seven molecules from US10015966B2, “Fungicidal pyrazole mixtures” (E I DU PONT DE NEMOURS AND COMPANY, priority 2012, dated 2018).

SMILES strings stand for the structures. Marks after values point to notes of the source that are not given here.

Take `Cc1nn(C)c(Nc2c(F)cccc2F)c1-c1ccc(F)cc1Br` [Compound 11, 4-(2-bromo-4-fluorophenyl)-N-(2,6-difluorophenyl)-1,3-dimethyl-1H-pyrazol-5-amine]: the “Test E rating (% disease control)” value with Septoria nodorum is 60* %.
One may read the pest or weed control as the degree to which the test organism was suppressed or injured, in per cent. Read a low pest or weed control as a weak effect. For the molecule `Cc1nn(C)c(Nc2c(F)cccc2Cl)c1-c1ccc(F)cc1Br` [Compound 4, 4-(2-bromo-4-fluorophenyl)-N-(2-chloro-6-fluorophenyl)-1,3-dimethyl-1H-pyrazol-5-amine], in data set [1], the distribution into fat result is recorded as “significantly diminished distribution into fat”. Also, the pest or weed control at 200 ppm (with Septoria tritici; in data set [2]; in the data set with Botrytis cinerea; in data set [3]) was 100% throughout.
For `Cc1nn(C)c(Nc2ccccc2Cl)c1-c1ccc(F)cc1Cl` [Compound 10, 4-(2-chloro-4-fluorophenyl)-N-(2-chlorophenyl)-1,3-dimethyl-1H-pyrazol-5-amine], the “Test E rating (% disease control)” value with Septoria nodorum is given as 0* %.
Take `Cc1nn(C)c(Nc2ccccc2Br)c1-c1ccc(F)cc1Cl` [Compound 9, N-(2-bromophenyl)-4-(2-chloro-4-fluorophenyl)-1,3-dimethyl-1H-pyrazol-5-amine]: the “Test E rating (% disease control)” value with Septoria nodorum is given as 0* %.
One may read the melting point as the temperature of the solid-liquid transition. On to `Cc1nn(C)c(Nc2c(F)cccc2Br)c1-c1ccc(F)cc1Br` [Compound 7, 4-(2-bromo-4-fluorophenyl)-N-(2-bromo-6-fluorophenyl)-1,3-dimethyl-1H-pyrazol-5-amine], for which the melting point was 154 to 156 °C. The pest or weed control at 200 ppm in the data set on Septoria tritici was 100%. In data set [2], this molecule returned a pest or weed control at 200 ppm of 100%. Besides, the pest or weed control at 200 ppm in the data set with Botrytis cinerea was 100%. For the same molecule, the pest or weed control at 200 ppm in data set [3] is 100%.
As for `Cc1nn(C)c(Nc2c(F)cccc2Br)c1-c1ccc(F)cc1Cl` [Compound 5, N-(2-bromo-6-fluorophenyl)-4-(2-chloro-4-fluorophenyl)-1,3-dimethyl-1H-pyrazol-5-amine], in data set [1], the distribution into fat result is given as “significantly diminished distribution into fat”. For the same molecule, the pest or weed control at 200 ppm (in the data set with Septoria tritici; in data set [2]; in the data set on Botrytis cinerea; in data set [3]) was 100% in each case.
In the case of `Cc1nn(C)c(Nc2ccccc2Cl)c1-c1ccc(F)cc1Br` [Compound 8, 4-(2-bromo-4-fluorophenyl)-N-(2-chlorophenyl)-1,3-dimethyl-1H-pyrazol-5-amine], the pest or weed control at 200 ppm with Septoria tritici was found to be 100%; in data set [2], 99%; in the data set with Botrytis cinerea, 100%; in data set [3], 100%.
